How the values were obtained:
Assay in all cases: relative viability (nuclei count vs DMSO), 5 days (fraction); higher = more cells survive
Cediranib + Dasatinib = compound: COc1cc2c(Oc3ccc4[nH]c(C)cc4c3F)ncnc2cc1OCCCN1CCCC1 [Cediranib] + Cc1nc(Nc2ncc(C(=O)Nc3c(C)cccc3Cl)s2)cc(N2CCN(CCO)CC2)n1 [Dasatinib] (partner 0.075 µM)
In short: (§1)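 Medians of duplicate plates are given as relative viability. That measure is the nuclei count in treated wells divided by the count in vehicle wells. Counts were taken on 4× images of lung cancer cell lines in 1536-well plates, 5 days after pin-tool dosing the day after seeding with one drug alone or a fixed anchor-drug dose plus five library-drug doses (not always all listed) in √10 steps.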

Decitabine + Pemetrexed = compound: Nc1ncn([C@H]2C[C@H](O)[C@@H](CO)O2)c(=O)n1 [Decitabine] + Nc1nc2[nH]cc(CCc3ccc(C(=O)N[C@@H](CCC(=O)O)C(=O)O)cc3)c2c(=O)[nH]1 [Pemetrexed] (partner 0.2 µM)
In short: as §1

Decitabine + Luminespib = compound: Nc1ncn([C@H]2C[C@H](O)[C@@H](CO)O2)c(=O)n1 [Decitabine] + CCNC(=O)c1noc(-c2cc(C(C)C)c(O)cc2O)c1-c1ccc(CN2CCOCC2)cc1 [Luminespib] (partner 0.01 µM)
In short: as §1

Cediranib + Vorinostat = compound: COc1cc2c(Oc3ccc4[nH]c(C)cc4c3F)ncnc2cc1OCCCN1CCCC1 [Cediranib] + O=C(CCCCCCC(=O)Nc1ccccc1)NO [Vorinostat] (partner 1 µM)
In short: as §1

Row | Cell Line | relative viability (Cediranib + Dasatinib; first compound 0.04 µM) | relative viability (Cediranib + Dasatinib; first compound 0.1265 µM) | relative viability (Cediranib + Dasatinib; first compound 0.4 µM) | relative viability (Cediranib + Dasatinib; first compound 1.265 µM) | relative viability (Cediranib + Dasatinib; first compound 4 µM) | relative viability (Decitabine + Pemetrexed; first compound 0.04 µM) | relative viability (Decitabine + Pemetrexed; first compound 0.1265 µM) | relative viability (Decitabine + Pemetrexed; first compound 0.4 µM) | relative viability (Decitabine + Pemetrexed; first compound 1.265 µM) | relative viability (Decitabine + Pemetrexed; first compound 4 µM) | relative viability (Decitabine + Luminespib; first compound 0.04 µM) | relative viability (Decitabine + Luminespib; first compound 0.1265 µM) | relative viability (Decitabine + Luminespib; first compound 0.4 µM) | relative viability (Decitabine + Luminespib; first compound 1.265 µM) | relative viability (Decitabine + Luminespib; first compound 4 µM) | relative viability (Cediranib + Vorinostat; first compound 0.04 µM) | relative viability (Cediranib + Vorinostat; first compound 0.1265 µM) | relative viability (Cediranib + Vorinostat; first compound 0.4 µM) | relative viability (Cediranib + Vorinostat; first compound 1.265 µM) | relative viability (Cediranib + Vorinostat; first compound 4 µM)
1 | ChaGo-K-1 | 0.524 | 0.508 | 0.608 | 0.578 | 0.626 | 0.27 | 0.261 | 0.253 | 0.251 | 0.269 | 0.584 | 0.487 | 0.33 | 0.277 | 0.39 | 0.719 | 0.377 | 0.719 | 0.757 | 0.808
2 | EKVX | 0.534 | 0.625 | 0.564 | 0.582 | 0.591 | 0.281 | 0.369 | 0.255 | 0.205 | 0.194 | 0.68 | 0.682 | 0.551 | 0.389 | 0.322 | 0.956 | 0.534 | 0.63 | 0.916 | 0.697
3 | EMC-BAC-2 | 0.316 | 0.603 | 0.365 | 0.309 | 0.314 |  | 0.407 | 0.412 | 0.36 | 0.354 | 1.02 | 0.927 | 0.715 | 0.602 | 0.584 | 0.403 |  | 0.407 | 0.485 | 0.499

Source: the supplement of paper PMC10307832
